Laboratory results: patent US8658791B2, “2-substituted-6-amino-5-alkyl, alkenyl or alkynyl-4-pyrimidinecarboxylic acids and 6-substituted-4-amino-3-alkyl, alkenyl or alkynyl picolinic acids and their use as herbicides” (Dow AgroSciences, LLC, priority 2007, dated 2014)

Columns and labels:
[1] = tested on: lambsquarter (Chenopodium album); experiment: General postemergence herbicidal activity, CHEAL; format: in vivo; details: Chenopodium album, post-emergence, 336 h, postemergence spray, visual score after 14 days, 0 = no injury, 100 = complete kill, read-out: Post-emergent Weed Control CHEAL; for pest or weed control at 280 g/ha: 280 g ai/ha; for pest or weed control at 140 g/ha: 140 g ai/ha; for pest or weed control at 70 g/ha: 70 g ai/ha
How it was run: (§1)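 Greenhouse-grown plants at the first or second true leaf stage are sprayed at 187 L/ha and kept 14 days, watered from below to prevent wash-off. Percent injury (0–100) is judged by eye against untreated plants.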

[2] = tested on: velvetleaf (Abutilon theophrasti); experiment: General postemergence herbicidal activity, ABUTH; format: in vivo; details: Abutilon theophrasti, post-emergence, 336 h, postemergence spray, visual score after 14 days, 0 = no injury, 100 = complete kill, read-out: Post-emergent Weed Control ABUTH; for pest or weed control at 280 g/ha: 280 g ai/ha; for pest or weed control at 140 g/ha: 140 g ai/ha; for pest or weed control at 70 g/ha: 70 g ai/ha
How it was run: as §1

[3] = tested on: wild poinsettia (Euphorbia heterophylla); experiment: General postemergence herbicidal activity, EPHHL; format: in vivo; details: Euphorbia heterophylla, post-emergence, 336 h, postemergence spray, visual score after 14 days, 0 = no injury, 100 = complete kill, read-out: Post-emergent Weed Control EPHHL; for pest or weed control at 280 g/ha: 280 g ai/ha; for pest or weed control at 140 g/ha: 140 g ai/ha; for pest or weed control at 70 g/ha: 70 g ai/ha
How it was run: as §1

[4] = tested on: barnyardgrass (Echinochloa crus-galli); experiment: General postemergence herbicidal activity, ECHCG; format: in vivo; details: Echinochloa crus-galli, post-emergence, 336 h, postemergence spray, visual score after 14 days, 0 = no injury, 100 = complete kill, read-out: Post-emergent Weed Control ECHCG; for pest or weed control at 280 g/ha: 280 g ai/ha; for pest or weed control at 140 g/ha: 140 g ai/ha; for pest or weed control at 70 g/ha: 70 g ai/ha
How it was run: as §1

rice (Oryza sativa) [5] = experiment: General postemergence herbicidal activity, ORYSA; format: in vivo; details: Oryza sativa, post-emergence, 336 h, postemergence spray, visual score after 14 days, 0 = no injury, 100 = complete kill, read-out: Post-emergent Weed Control ORYSA; for plant injury at 280 g/ha: 280 g ai/ha; for plant injury at 140 g/ha: 140 g ai/ha; for plant injury at 70 g/ha: 70 g ai/ha
How it was run: as §1

[6] = tested on: lambsquarter (Chenopodium album); experiment: General preemergence herbicidal activity, CHEAL; format: in vivo; details: applied to soil surface, visual score after 20-22 days, 0 = no injury, 100 = complete kill or no emergence, read-out: Pre-emergent Weed Control CHEAL; for pest or weed control at 140 g/ha: 140 g ai/ha
Source text: (§2) Seeds of the desired test plant species were planted in a soil matrix prepared by mixing a loam soil (43 percent silt, 19 percent clay, and 38 percent sand, with a pH of about 8.1 and an organic matter content of about 1.5 percent) and sand in a 70 to 30 ratio. The soil matrix was contained in plastic pots with a surface area of 127 square centimeters. When required to ensure good germination and healthy plants, a fungicide treatment and/or other chemical or physical treatment was applied. A weighed amount, determined by the highest rate to be tested, of each test compound was placed in a 25 mL glass vial and was dissolved in 6 mL of a 97:3 v/v (volume/volume) mixture of acetone and DMSO to obtain concentrated stock solutions. […] The stock solutions obtained were diluted with 18 mL of a 0.1% v/v aqueous solution of Tween® 20 surfactant to obtain spray solutions containing the highest application rate. Additional application rates were obtained by serial dilution of 12 mL of the high rate solution into a solution containing 3 mL of 97:3 v/v mixture of acetone and DMSO and 9 mL of the 0.1% v/v aqueous solution of Tween® 20 surfactant to obtain 1/2X, 1/4X, 1/8X and 1/16X rates of the high rate. Compound requirements are based upon a 12 mL application volume at a rate of 187 L/ha. Formulated compounds were applied to the soil surface with an overhead Mandel track sprayer equipped with a […] nozzles calibrated to deliver 187 L/ha over an application area of 0.503 square meters at a spray height of 18 inches (43 cm) above the soil surface. Control pots were sprayed in the same manner with the solvent blank. The treated pots and control pots were placed in a greenhouse maintained with an approximate 15 hour photoperiod and temperatures of about 23-29° C. during the day and 22-28° C. during the night. Nutrients and water were added on a regular basis and supplemental lighting was provided with overhead metal halide 1000-Watt lamps as necessary. The water was added by top-irrigation. After 20-22 days, the condition of the test plants that germinated and grew as compared with that of the untreated plants that emerged and grew was determined visually and scored on a scale of 0 to 100 percent where 0 corresponds to no injury and 100 corresponds to complete kill or no emergence.

[7] = tested on: velvetleaf (Abutilon theophrasti); experiment: General preemergence herbicidal activity, ABUTH; format: in vivo; details: applied to soil surface, visual score after 20-22 days, 0 = no injury, 100 = complete kill or no emergence, read-out: Pre-emergent Weed Control ABUTH; for pest or weed control at 140 g/ha: 140 g ai/ha
Source text: as §2

[8] = tested on: wild poinsettia (Euphorbia heterophylla); experiment: General preemergence herbicidal activity, EPHHL; format: in vivo; details: applied to soil surface, visual score after 20-22 days, 0 = no injury, 100 = complete kill or no emergence, read-out: Pre-emergent Weed Control EPHHL; for pest or weed control at 140 g/ha: 140 g ai/ha
Source text: as §2

[9] = tested on: barnyardgrass (Echinochloa crus-galli); experiment: General preemergence herbicidal activity, ECHCG; format: in vivo; details: applied to soil surface, visual score after 20-22 days, 0 = no injury, 100 = complete kill or no emergence, read-out: Pre-emergent Weed Control ECHCG; for pest or weed control at 140 g/ha: 140 g ai/ha
Source text: as §2

rice (Oryza sativa) [10] = experiment: General preemergence herbicidal activity, ORYSA; format: in vivo; details: applied to soil surface, visual score after 20-22 days, 0 = no injury, 100 = complete kill or no emergence, read-out: Pre-emergent Weed Control ORYSA; for plant injury at 140 g/ha: 140 g ai/ha
Source text: as §2

Structure (SMILES)	pest or weed control at 140 g/ha [6] [%]	pest or weed control at 140 g/ha [7] [%]	pest or weed control at 140 g/ha [8] [%]	pest or weed control at 140 g/ha [9] [%]	plant injury at 140 g/ha (rice (Oryza sativa) [10]) [%]	melting point [°C]	pest or weed control at 140 g/ha [1] [%]	pest or weed control at 140 g/ha [2] [%]	pest or weed control at 140 g/ha [3] [%]	pest or weed control at 140 g/ha [4] [%]	plant injury at 140 g/ha (rice (Oryza sativa) [5]) [%]	other results
COC(=O)c1nc(-c2ccc(Cl)c(OC)c2F)nc(N)c1C [Compound 2, 6-Amino-2-(4-chloro-2-fluoro-3-methoxyphenyl)-5-methylpyrimidine-4-carboxylic acid methyl ester]	80	40	95	0	15	168 to 170						pest or weed control at 280 g/ha [1]: 100%; pest or weed control at 280 g/ha [2]: 95%; pest or weed control at 280 g/ha [3]: 100%; pest or weed control at 280 g/ha [4]: 95%; plant injury at 280 g/ha (rice (Oryza sativa) [5]): 0%
C=Cc1c(N)nc(C2CC2)nc1C(=O)OCC [Compound 4, 6-Amino-2-cyclopropyl-5-vinylpyrimidine-4-carboxylic acid ethyl ester]						155 to 157	100	100	100	0	0	pest or weed control at 280 g/ha ([6]; 280 g ai/ha): 100%; pest or weed control at 280 g/ha ([7]; 280 g ai/ha): 90%; pest or weed control at 280 g/ha ([8]; 280 g ai/ha): 100%; pest or weed control at 280 g/ha ([9]; 280 g ai/ha): 50%; plant injury at 280 g/ha (rice (Oryza sativa) [10]; 280 g ai/ha): 0%
C=Cc1c(N)nc(-c2ccc(Cl)cc2F)nc1C(=O)OC [Compound 5, 6-Amino-2-(4-chloro-2-fluorophenyl)-5-vinylpyrimidine-4-carboxylic acid methyl ester]	95	100	90	0	10	137 to 139	100	100	100	80	5	
C=Cc1c(N)nc(-c2ccc(Cl)c(C(C)F)c2F)nc1C(=O)OC (stereo not drawn) [Compound 14, 6-amino-2-(4-chloro-2-fluoro-3-(1-fluoroethyl)phenyl)-5-vinylpyrimidine-4-carboxylic acid methyl ester]	100	100	100	95	95	144 to 147						pest or weed control at 70 g/ha [1]: 100%; pest or weed control at 70 g/ha [2]: 100%; pest or weed control at 70 g/ha [3]: 100%; pest or weed control at 70 g/ha [4]: 100%; plant injury at 70 g/ha (rice (Oryza sativa) [5]): 10%
C=Cc1c(N)cc(-c2ccc(Cl)c(OC)c2F)nc1C(=O)OC [Compound 28, 4-Amino-6-(4-chloro-2-fluoro-3-methoxyphenyl)-3-vinylpyridine-2-carboxylic acid methyl ester]	95	95	100	70	20	118 to 121						pest or weed control at 280 g/ha [1]: 75%; pest or weed control at 280 g/ha [2]: 85%; pest or weed control at 280 g/ha [3]: 90%; pest or weed control at 280 g/ha [4]: 75%; plant injury at 280 g/ha (rice (Oryza sativa) [5]): 0%
C=Cc1c(N)nc(-c2ccc(Cl)cc2F)nc1C(=O)O [Compound 42, 6-Amino-2-(4-chloro-2-fluorophenyl)-5-vinylpyrimidine-4-carboxylic acid]	100	100	100	30	10	167 to 169						
C/C=C\c1c(N)nc(-c2ccc(Cl)c(OC)c2F)nc1C(=O)O [Compound 55, 6-Amino-2-(4-chloro-2-fluoro-3-methoxyphenyl)-5-((Z)-propenyl)pyrimidine-4-carboxylic acid]	100	100	100	60	30							pest or weed control at 70 g/ha [1]: 100%; pest or weed control at 70 g/ha [2]: 100%; pest or weed control at 70 g/ha [3]: 100%; pest or weed control at 70 g/ha [4]: 100%; plant injury at 70 g/ha (rice (Oryza sativa) [5]): 15%
C=Cc1c(N)cc(-c2ccc(Cl)c(OC)c2F)nc1C(=O)O [Compound 59, 4-Amino-6-(4-chloro-2-fluoro-3-methoxyphenyl)-3-vinylpyridine-2-carboxylic acid]	100	100	100	100	0		100	100	100	100	0	
